Measured values taken from ChEMBL document CHEMBL1773043, “Platensimycin and platencin congeners from Streptomyces platensis” (J Nat Prod, 2011).
Activity calls are given as the source filed them. No cut-off for these calls is given here.

These molecules were tested on Escherichia coli (assay: Antibacterial activity against Escherichia coli at 64 ug/ml after 20 hrs).
Format: functional, organism-based

Row | SMILES | Activity
1 | C=C1C2CCC3(C=CC(=O)[C@@](C)(CCC(=O)Nc4c(O)ccc(C(=O)OC)c4O)C3C2)[C@H]1O (some centres not stated) | inactive
2 | C[C@@]12CC34C=CC(=O)[C@@](C)(CCC(=O)Nc5c(O)ccc(C(=O)O)c5O)C3[C@H](CC1[C@H]4O)O2 (some centres not stated) | inactive
3 | C/C(=C\CC[C@]1(C)C(=O)C=C[C@]23CC4C[C@H](O[C@]4(C)C2)C31)C(=O)N[C@@H](CCC(N)=O)C(=O)O (some centres not stated) | inactive
4 | C=C1CC23C=CC(=O)[C@@](C)(CCC(=O)OCC(O)CO)C2CC1CC3 (some centres not stated) | inactive
5 | C[C@@]12C[C@@]34C=CC(=O)[C@@](C)(CCC(=O)Nc5c(O)ccc(C(N)=O)c5O)C3[C@H](CC1C4)O2 (some centres not stated) | inactive
6 | C[C@@]12C[C@@]34C=CC(=O)[C@@](C)(CCC(=O)Nc5c(O)ccc6c(=O)[nH]c(=O)oc56)C3[C@H](CC1C4)O2 (some centres not stated) | inactive

These molecules were tested on Streptococcus pneumoniae (assay: Antibacterial activity against Streptococcus pneumoniae at 64 ug/ml after 20 hrs).
Format: functional, organism-based

Row | SMILES | Activity
7 | C=C1C2CCC3(C=CC(=O)[C@@](C)(CCC(=O)Nc4c(O)ccc(C(=O)OC)c4O)C3C2)[C@H]1O (some centres not stated) | inactive
8 | C[C@@]12CC34C=CC(=O)[C@@](C)(CCC(=O)Nc5c(O)ccc(C(=O)O)c5O)C3[C@H](CC1[C@H]4O)O2 (some centres not stated) | inactive
9 | C/C(=C\CC[C@]1(C)C(=O)C=C[C@]23CC4C[C@H](O[C@]4(C)C2)C31)C(=O)N[C@@H](CCC(N)=O)C(=O)O (some centres not stated) | inactive
10 | C=C1CC23C=CC(=O)[C@@](C)(CCC(=O)OCC(O)CO)C2CC1CC3 (some centres not stated) | inactive
11 | C[C@@]12C[C@@]34C=CC(=O)[C@@](C)(CCC(=O)Nc5c(O)ccc(C(N)=O)c5O)C3[C@H](CC1C4)O2 (some centres not stated) | inactive
12 | C[C@@]12C[C@@]34C=CC(=O)[C@@](C)(CCC(=O)Nc5c(O)ccc6c(=O)[nH]c(=O)oc56)C3[C@H](CC1C4)O2 (some centres not stated) | inactive

Each molecule was assayed on Enterococcus faecalis (assay: Antibacterial activity against Enterococcus faecalis at 64 ug/ml after 20 hrs).
Format: functional, organism-based

Row | SMILES | Activity
13 | C=C1C2CCC3(C=CC(=O)[C@@](C)(CCC(=O)Nc4c(O)ccc(C(=O)OC)c4O)C3C2)[C@H]1O (some centres not stated) | inactive
14 | C[C@@]12CC34C=CC(=O)[C@@](C)(CCC(=O)Nc5c(O)ccc(C(=O)O)c5O)C3[C@H](CC1[C@H]4O)O2 (some centres not stated) | inactive
15 | C/C(=C\CC[C@]1(C)C(=O)C=C[C@]23CC4C[C@H](O[C@]4(C)C2)C31)C(=O)N[C@@H](CCC(N)=O)C(=O)O (some centres not stated) | inactive
16 | C=C1CC23C=CC(=O)[C@@](C)(CCC(=O)OCC(O)CO)C2CC1CC3 (some centres not stated) | inactive
17 | C[C@@]12C[C@@]34C=CC(=O)[C@@](C)(CCC(=O)Nc5c(O)ccc(C(N)=O)c5O)C3[C@H](CC1C4)O2 (some centres not stated) | inactive
18 | C[C@@]12C[C@@]34C=CC(=O)[C@@](C)(CCC(=O)Nc5c(O)ccc6c(=O)[nH]c(=O)oc56)C3[C@H](CC1C4)O2 (some centres not stated) | inactive

These molecules were tested on Enterococcus faecium (assay: Antibacterial activity against Enterococcus faecium at 64 ug/ml after 20 hrs).
Format: functional, organism-based

Row | SMILES | Activity
19 | C=C1C2CCC3(C=CC(=O)[C@@](C)(CCC(=O)Nc4c(O)ccc(C(=O)OC)c4O)C3C2)[C@H]1O (some centres not stated) | inactive
20 | C[C@@]12CC34C=CC(=O)[C@@](C)(CCC(=O)Nc5c(O)ccc(C(=O)O)c5O)C3[C@H](CC1[C@H]4O)O2 (some centres not stated) | inactive
21 | C/C(=C\CC[C@]1(C)C(=O)C=C[C@]23CC4C[C@H](O[C@]4(C)C2)C31)C(=O)N[C@@H](CCC(N)=O)C(=O)O (some centres not stated) | inactive
22 | C=C1CC23C=CC(=O)[C@@](C)(CCC(=O)OCC(O)CO)C2CC1CC3 (some centres not stated) | inactive
23 | C[C@@]12C[C@@]34C=CC(=O)[C@@](C)(CCC(=O)Nc5c(O)ccc(C(N)=O)c5O)C3[C@H](CC1C4)O2 (some centres not stated) | inactive
24 | C[C@@]12C[C@@]34C=CC(=O)[C@@](C)(CCC(=O)Nc5c(O)ccc6c(=O)[nH]c(=O)oc56)C3[C@H](CC1C4)O2 (some centres not stated) | inactive

These molecules were tested against T1, 3-oxoacyl-[acyl-carrier-protein] synthase 2 (Staphylococcus aureus) (UniProt Q5TKS0) (assay: Inhibition of Staphylococcus aureus […] assessed as [2-14C]-malonyl CoA incorporation after 90 mins by cell free-based scintillation counting).
T1 sequence (whole entry): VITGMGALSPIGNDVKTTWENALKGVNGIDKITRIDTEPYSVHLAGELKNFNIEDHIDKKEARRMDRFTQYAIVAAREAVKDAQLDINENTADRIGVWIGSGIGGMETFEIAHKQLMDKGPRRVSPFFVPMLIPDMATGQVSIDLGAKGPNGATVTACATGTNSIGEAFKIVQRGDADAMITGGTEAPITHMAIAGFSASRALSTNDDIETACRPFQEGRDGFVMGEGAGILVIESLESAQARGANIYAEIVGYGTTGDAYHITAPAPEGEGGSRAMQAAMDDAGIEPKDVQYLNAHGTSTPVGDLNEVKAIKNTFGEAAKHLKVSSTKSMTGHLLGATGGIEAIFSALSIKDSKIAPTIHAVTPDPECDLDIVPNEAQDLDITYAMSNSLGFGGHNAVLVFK

Row | SMILES | inhibition
25 | C=C1C2CCC3(C=CC(=O)[C@@](C)(CCC(=O)Nc4c(O)ccc(C(=O)OC)c4O)C3C2)[C@H]1O (some centres not stated) | inactive
26 | C[C@@]12CC34C=CC(=O)[C@@](C)(CCC(=O)Nc5c(O)ccc(C(=O)O)c5O)C3[C@H](CC1[C@H]4O)O2 (some centres not stated) | inactive
27 | C/C(=C\CC[C@]1(C)C(=O)C=C[C@]23CC4C[C@H](O[C@]4(C)C2)C31)C(=O)N[C@@H](CCC(N)=O)C(=O)O (some centres not stated) | inactive
28 | C=C1CC23C=CC(=O)[C@@](C)(CCC(=O)OCC(O)CO)C2CC1CC3 (some centres not stated) | inactive
29 | C[C@@]12C[C@@]34C=CC(=O)[C@@](C)(CCC(=O)Nc5c(O)ccc(C(N)=O)c5O)C3[C@H](CC1C4)O2 (some centres not stated) | inactive
30 | C[C@@]12C[C@@]34C=CC(=O)[C@@](C)(CCC(=O)Nc5c(O)ccc6c(=O)[nH]c(=O)oc56)C3[C@H](CC1C4)O2 (some centres not stated) | inactive

Each molecule was assayed on Staphylococcus aureus (assay: Antibacterial activity against Staphylococcus aureus at 64 ug/ml after 20 hrs).
Format: functional, organism-based

Row | SMILES | Activity
31 | C=C1C2CCC3(C=CC(=O)[C@@](C)(CCC(=O)Nc4c(O)ccc(C(=O)OC)c4O)C3C2)[C@H]1O (some centres not stated) | inactive
32 | C[C@@]12CC34C=CC(=O)[C@@](C)(CCC(=O)Nc5c(O)ccc(C(=O)O)c5O)C3[C@H](CC1[C@H]4O)O2 (some centres not stated) | inactive
33 | C/C(=C\CC[C@]1(C)C(=O)C=C[C@]23CC4C[C@H](O[C@]4(C)C2)C31)C(=O)N[C@@H](CCC(N)=O)C(=O)O (some centres not stated) | inactive
34 | C=C1CC23C=CC(=O)[C@@](C)(CCC(=O)OCC(O)CO)C2CC1CC3 (some centres not stated) | inactive
35 | C[C@@]12C[C@@]34C=CC(=O)[C@@](C)(CCC(=O)Nc5c(O)ccc(C(N)=O)c5O)C3[C@H](CC1C4)O2 (some centres not stated) | inactive
36 | C[C@@]12C[C@@]34C=CC(=O)[C@@](C)(CCC(=O)Nc5c(O)ccc6c(=O)[nH]c(=O)oc56)C3[C@H](CC1C4)O2 (some centres not stated) | inactive

The molecules below were run on Haemophilus influenzae (assay: Antibacterial activity against Haemophilus influenzae at 64 ug/ml after 20 hrs).
Format: functional, organism-based

Row | SMILES | Activity
37 | C=C1C2CCC3(C=CC(=O)[C@@](C)(CCC(=O)Nc4c(O)ccc(C(=O)OC)c4O)C3C2)[C@H]1O (some centres not stated) | inactive
38 | C[C@@]12CC34C=CC(=O)[C@@](C)(CCC(=O)Nc5c(O)ccc(C(=O)O)c5O)C3[C@H](CC1[C@H]4O)O2 (some centres not stated) | inactive
39 | C/C(=C\CC[C@]1(C)C(=O)C=C[C@]23CC4C[C@H](O[C@]4(C)C2)C31)C(=O)N[C@@H](CCC(N)=O)C(=O)O (some centres not stated) | inactive
40 | C=C1CC23C=CC(=O)[C@@](C)(CCC(=O)OCC(O)CO)C2CC1CC3 (some centres not stated) | inactive
41 | C[C@@]12C[C@@]34C=CC(=O)[C@@](C)(CCC(=O)Nc5c(O)ccc(C(N)=O)c5O)C3[C@H](CC1C4)O2 (some centres not stated) | inactive
42 | C[C@@]12C[C@@]34C=CC(=O)[C@@](C)(CCC(=O)Nc5c(O)ccc6c(=O)[nH]c(=O)oc56)C3[C@H](CC1C4)O2 (some centres not stated) | inactive
